The source of these data is PubChem BioAssay AID624323 (Sanford-Burnham Center for Chemical Genomics, 2012).

For the data set, the system named is aqueous buffer solubility, pH 5.0/6.2/7.4. As to the kind of experiment: aqueous buffer solubility at three pH values, ADME assay, biophysical, set 2 (AID 624323). The settings on record: at 100 µM, stronger effect = higher value.
The mark [1] stands for this setting: measured here: solubility at pH 5.0.
The mark [2] stands for this setting: measured here: solubility at pH 6.2.

Structures are written as SMILES. Values after ≈ are worked out from the molar mass of the structure shown. Active and inactive are the calls of the source. How the calls were made is not given here.

For orientation: solubility means how much of the substance goes into solution per volume. Turning to `NC(=O)C1CCN(c2nc(-c3ccc(Br)cc3)cs2)CC1`, the solubility was 0.12 µg/mL (inactive) (≈ 0.328 µM). The same compound gave a solubility under setting [1] of 0.14 µg/mL (≈ 0.382 µM). Further, under setting [2], the solubility was determined as 0.14 µg/mL (≈ 0.382 µM).
As for `O=c1[nH]c2c(s1)C(c1cccnc1)C1C3CCC(C3)C1S2` (stereo unspecified), the solubility is 21.7 µg/mL (≈ 68.6 µM). In addition, the solubility under setting [1] amounted to 24 µg/mL (≈ 75.8 µM). The solubility under setting [2] amounted to 21.8 µg/mL (≈ 68.9 µM).
On the same counts, the results for `COc1cc(NC(=O)c2cc(C3CC3)on2)c(OC)cc1Cl` are 0.06 µg/mL (inactive) (≈ 0.186 µM), less than 0.01 µg/mL and 0.05 µg/mL (≈ 0.155 µM).
The matching figures for `Oc1cc(O)cc(/C=C/c2ccc(O)c(O)c2)c1`: 10.1 µg/mL (≈ 41.4 µM), more than 24 µg/mL and more than 24 µg/mL.
On the same counts, the results for `O=C1CCCC2=C1C1(CCCC1)N=C(Nc1nc3ccccc3o1)N2` are 0.07 µg/mL (inactive) (≈ 0.208 µM), 0.07 µg/mL (≈ 0.208 µM) and 0.09 µg/mL (≈ 0.268 µM).
On to `Cc1cc(C)nc(-n2nc(C)c(Sc3ccc(F)cc3)c2N)n1`, for which the solubility was 9.3 µg/mL (inactive) (≈ 28.2 µM). The same compound showed a solubility under setting [1] of 5.6 µg/mL (≈ 17 µM). The same compound came in with a solubility under setting [2] of 8.6 µg/mL (≈ 26.1 µM).
The matching figures for `COc1ccc(S(=O)(=O)N2CCN(S(=O)(=O)c3ccc4c(c3)OCCO4)CC2)cc1`: < 0.1 µg/mL (inactive), 0.13 µg/mL (≈ 0.286 µM) and less than 0.1 µg/mL.
With `O=C1C2CC=CCC2C(=O)N1c1n[nH]c(-c2ccccc2)n1` (stereo unspecified), the solubility was more than 29 µg/mL. The compound also returned a solubility under setting [1] of 16 µg/mL (≈ 54.4 µM). The compound further yielded a solubility under setting [2] of 20.2 µg/mL (≈ 68.6 µM).
With `c1ccc(-c2nnc(N3CCOCC3)nc2-c2ccccc2)cc1`, the solubility was 2.3 µg/mL (inactive) (≈ 7.22 µM). Under setting [1], the solubility came to 2 µg/mL (≈ 6.28 µM). Besides, under setting [2], the solubility was found to be 1.8 µg/mL (≈ 5.65 µM).
Turning to `O=C(CSc1cccc2cccnc12)N1CCCC1`, the solubility is more than 27 µg/mL. The compound further yielded a solubility under setting [1] of more than 27 µg/mL. Under setting [2], this compound returned a solubility of more than 27 µg/mL.
On to `COC(=O)c1ccccc1NC(=O)c1ccc(F)cc1`, for which the solubility is 0.69 µg/mL (inactive) (≈ 2.53 µM). This compound gave a solubility under setting [1] of 0.85 µg/mL (≈ 3.11 µM). Moreover, the solubility under setting [2] worked out at 0.9 µg/mL (≈ 3.29 µM).
`CCc1nnc(NC(=O)c2ccc(NS(=O)(=O)c3ccccc3)cc2)s1`: the solubility was 0.78 µg/mL (inactive) (≈ 2.01 µM). The compound also returned a solubility under setting [1] of 0.09 µg/mL (≈ 0.232 µM). Under setting [2], the solubility came out at 0.16 µg/mL (≈ 0.412 µM).
On the same counts, the results for `Cc1cccc(-n2cnc3cc(C(=O)N4CCCCC4)ccc32)c1` are more than 32 µg/mL, more than 32 µg/mL and more than 32 µg/mL.
Take `CN(C)C1=C(Cl)C(=O)N(c2ccc(Cl)c(Cl)c2)C1=O`: the solubility is < 0.01 µg/mL (inactive). The compound further showed a solubility under setting [1] of 0.06 µg/mL (≈ 0.188 µM). This compound also gave a solubility under setting [2] of 0.12 µg/mL (≈ 0.375 µM).
Consider `Cc1cc(C(=O)CN2C(=O)CCC2=O)c(C)n1Cc1ccccc1`, for which the solubility was more than 32 µg/mL. Under setting [1], the solubility is 25.2 µg/mL (≈ 77.7 µM). Besides, the solubility under setting [2] turned out to be 22.6 µg/mL (≈ 69.7 µM).
With `COc1ccc(C2c3c(ncn(CCN4CCOCC4)c3=N)Oc3ccc4ccccc4c32)cc1OC` (stereo unspecified), the solubility was 41.5 µg/mL (≈ 83.2 µM). In addition, the solubility under setting [1] is more than 49 µg/mL. In addition, under setting [2], the solubility is 41.2 µg/mL (≈ 82.6 µM).
For the compound `O=C(COC(=O)C12CC3CC(CC(C3)C1)C2)NCc1ccco1`, the solubility is 2.6 µg/mL (inactive) (≈ 8.19 µM). The same compound gave a solubility under setting [1] of less than 0.1 µg/mL. Moreover, under setting [2], the solubility is 4.2 µg/mL (≈ 13.2 µM).
With `CCCn1ncc(CN2CCCC(C(=O)c3cccc(OC(C)C)c3)C2)c1C` (stereo unspecified), the solubility was more than 38 µg/mL. The compound further came in with a solubility under setting [1] of more than 38 µg/mL. In addition, under setting [2], the solubility is more than 38 µg/mL.
Turning to `O=C(CCNS(=O)(=O)c1cccc2nsnc12)N1CCN(c2ccccn2)CC1`, the solubility was more than 43 µg/mL. In addition, the solubility under setting [1] was determined as 35.8 µg/mL (≈ 82.8 µM). The solubility under setting [2] was found to be 35.5 µg/mL (≈ 82.1 µM).
On the same counts, the results for `CCc1oc2ccccc2c1C(=O)c1cc(Br)c(O)c(Br)c1` are more than 42 µg/mL, 0.18 µg/mL (≈ 0.424 µM) and 26.1 µg/mL (≈ 61.5 µM).
The matching figures for `O=c1oc2c(O)c(O)cc3c(=O)oc4c(O)c(O)cc1c4c23`: more than 30 µg/mL, 7.9 µg/mL (≈ 26.1 µM) and more than 30 µg/mL.
On the same counts, the results for `Cc1ccc(S(=O)(=O)n2c(N)nc3ccccc32)cc1` are 2.4 µg/mL (inactive) (≈ 8.35 µM), 2.3 µg/mL (≈ 8 µM) and 2.4 µg/mL (≈ 8.35 µM).
Turning to `COc1ccc(S(=O)(=O)n2nc(OC(=O)c3ccccc3)cc2N)cc1`, the solubility is 14.9 µg/mL (≈ 39.9 µM). For the same compound, the solubility under setting [1] amounted to 0.46 µg/mL (≈ 1.23 µM). The compound also displayed a solubility under setting [2] of 2 µg/mL (≈ 5.36 µM).
The matching figures for `COc1ccc(OC)c(-c2nnc3n2N=C(c2ccc(OC)c(OC)c2)CS3)c1`: 26.1 µg/mL (≈ 63.3 µM), 28.2 µg/mL (≈ 68.4 µM) and 29.5 µg/mL (≈ 71.5 µM).
For the compound `CN(C)c1nc(N)nc(CSc2nnnn2-c2cccc3ccccc23)n1`, the solubility was 1 µg/mL (inactive) (≈ 2.64 µM). This compound also came in with a solubility under setting [1] of 2.8 µg/mL (≈ 7.38 µM). Moreover, under setting [2], the solubility amounted to 1 µg/mL (≈ 2.64 µM).
On the same counts, the results for `CCCc1nc2c(=O)n(C)c(=O)nc-2n(C)n1` are more than 23 µg/mL, more than 23 µg/mL and more than 23 µg/mL.
In the case of `O=c1[nH]c(SCc2ccc(Cl)cc2)nc2c1CCC2`, the solubility is 0.94 µg/mL (inactive) (≈ 3.21 µM). The compound further had a solubility under setting [1] of 0.45 µg/mL (≈ 1.54 µM). This compound returned a solubility under setting [2] of 0.52 µg/mL (≈ 1.78 µM).
